Results: article PMC4522185 (ChemistryOpen, 2015)
Values after ≈ are worked out from the molar mass of the structure shown. Like-named read-outs stand apart in the source and are kept apart here.

Assays:
physchem [1] = conditions: ch3cn+pbs (1+1), pH 7.4
[2] = target: human 20S proteasome (chymotrypsin-like activity, with PA28 activator) (Homo sapiens, UniProt P28074); assay: fluorogenic suc-LLVY-AMC cleavage; assay type: biochemical
[3] = target: T1, Mtb 20S open-gate proteasome (Mycobacterium tuberculosis, UniProt P9WHT9); assay: biochemical
physchem [4] = conditions: pbs, pH 7.4, aqueous buffer
[5] = target: T1, Mtb 20S open-gate proteasome; assay: biochemical; remark: listed apart in the source
physchem [6] = conditions: ch3cn+pbs (1+1), pH 7.4; remark: listed apart in the source
physchem [7] = conditions: pbs, pH 7.4, aqueous buffer; remark: listed apart in the source
physchem [8] = conditions: ch3cn+pbs (1+1), pH 7.4; remark: listed apart in the source

human 20S proteasome (chymotrypsin-like activity, with PA28 activator), sequence (P28074 60-263): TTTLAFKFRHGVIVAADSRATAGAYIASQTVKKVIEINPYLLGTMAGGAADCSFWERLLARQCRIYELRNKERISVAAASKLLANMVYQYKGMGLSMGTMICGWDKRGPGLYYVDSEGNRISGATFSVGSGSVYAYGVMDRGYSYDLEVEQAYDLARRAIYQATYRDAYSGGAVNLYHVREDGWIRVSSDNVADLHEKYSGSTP
human 20S proteasome (chymotrypsin-like activity, with PA28 activator), sequence (P25786 whole entry partner): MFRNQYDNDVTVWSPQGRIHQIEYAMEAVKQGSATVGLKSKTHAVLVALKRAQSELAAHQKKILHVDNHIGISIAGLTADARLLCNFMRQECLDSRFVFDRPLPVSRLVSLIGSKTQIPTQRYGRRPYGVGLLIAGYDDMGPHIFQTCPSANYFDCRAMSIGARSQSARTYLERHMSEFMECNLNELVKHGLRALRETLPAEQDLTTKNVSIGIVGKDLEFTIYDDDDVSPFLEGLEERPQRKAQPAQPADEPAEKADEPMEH
T1 sequence (P9WHT9 whole entry): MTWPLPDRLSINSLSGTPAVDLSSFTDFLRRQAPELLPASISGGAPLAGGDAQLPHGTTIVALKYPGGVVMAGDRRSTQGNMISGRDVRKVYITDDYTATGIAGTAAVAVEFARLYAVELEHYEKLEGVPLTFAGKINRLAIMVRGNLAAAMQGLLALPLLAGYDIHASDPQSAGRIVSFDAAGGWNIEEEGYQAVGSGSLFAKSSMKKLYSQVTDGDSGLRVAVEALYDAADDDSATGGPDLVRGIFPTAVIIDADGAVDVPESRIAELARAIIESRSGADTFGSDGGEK
T1 sequence (P9WHU1 whole entry partner): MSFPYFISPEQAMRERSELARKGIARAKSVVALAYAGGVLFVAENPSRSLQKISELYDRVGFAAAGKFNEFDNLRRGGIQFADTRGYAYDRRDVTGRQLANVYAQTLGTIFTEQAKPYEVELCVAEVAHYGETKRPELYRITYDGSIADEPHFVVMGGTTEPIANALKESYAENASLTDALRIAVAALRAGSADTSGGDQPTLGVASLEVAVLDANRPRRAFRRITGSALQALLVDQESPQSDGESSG

SMILES | remaining at 24 h, 50 µM (physchem [1]) [%] | IC50 [2] [µM] | IC50 [3] [nM] | also measured
O=c1oc(/C=C/c2ccc(OC(F)(F)F)cc2)ns1 [compound 32, (E)-5-(4-(Trifluoromethoxy)styryl)-1,3,4-oxathiazol-2-one] | 94.8 | > 100 | 780 | –
CCOC(=O)c1cccc(/C=C/c2nsc(=O)o2)c1 [compound 44, (E)-Ethyl 3-(2-(2-Oxo-1,3,4-oxathiazol-5-yl)vinyl)benzoate] | 96 | > 100 | 9900 | –
O=c1oc(/C(=C/c2ccccc2)c2ccccc2)ns1 [compound 23, (E)-5-(1,2-Diphenylvinyl)-1,3,4-oxathiazol-2-one] | – | 14 | – | –
O=c1oc(C(O)c2ccccc2)ns1 (stereo not drawn) [compound 14, 5-(Hydroxy(phenyl)methyl)-1,3,4-oxathiazol-2-one] | – | 20 | – | –
COc1cccc(Cc2nsc(=O)o2)c1 [compound 10, 5-(3-Methoxybenzyl)-1,3,4-oxathiazol-2-one] | – | > 100 | – | –
O=C(c1ccccc1)c1ccc(/C=C/c2nsc(=O)o2)cc1 [compound 34, (E)-5-(4-Benzoylstyryl)-1,3,4-oxathiazol-2-one] | 96.1 | 87 | 1190 | –
CCOC(=O)c1ccccc1/C=C/c1nsc(=O)o1 [compound 48, (E)-Ethyl 2-(2-(2-Oxo-1,3,4-oxathiazol-5-yl)vinyl)benzoate] | 97.7 | > 100 | – | –
O=c1oc(CCCl)ns1 [compound 5, 5-(2-Chloroethyl)-1,3,4-oxathiazol-2-one] | – | > 100 | – | –
Cc1ccc(/C=C/c2nsc(=O)o2)cc1 [compound 30, (E)-5-(4-Methylstyryl)-1,3,4-oxathiazol-2-one] | 96 | > 100 | 1000 | –
O=Cc1ccc(/C=C/c2nsc(=O)o2)cc1 [compound 38, (E)-4-(2-(2-Oxo-1,3,4-oxathiazol-5-yl)vinyl)benzaldehyde] | 91.4 | 32.5 | 695 | –
CCCCCc1nsc(=O)o1 [compound 7, 5-Pentyl-1,3,4-oxathiazol-2-one] | – | > 100 | – | –
O=c1oc(/C=C/c2ccc([N+](=O)[O-])cc2)ns1 [compound 36, (E)-5-(4-Nitrostyryl)-1,3,4-oxathiazol-2-one] | 96.9 | 26 | 1400 | –
CCOC(=O)c1ccc(/C=C/c2nsc(=O)o2)cc1 [compound 33, (E)-Ethyl 4-(2-(2-oxo-1,3,4-oxathiazol-5-yl)vinyl)benzoate] | 91.1 | > 100 | 475 | –
O=Cc1ccc(OCc2nsc(=O)o2)cc1 [compound 11, 4-((2-Oxo-1,3,4-oxathiazol-5-yl)methoxy)benzaldehyde] | – | > 100 | – | –
O=c1oc(-c2cccc(F)c2)ns1 [compound 4, 5-(3-Fluorophenyl)-1,3,4-oxathiazol-2-one] | – | 11 | – | –
O=c1oc(C2CC2)ns1 [compound 6, 5-Cyclopropyl-1,3,4-oxathiazol-2-one] | – | > 100 | – | –
O=c1oc(Cc2ccccc2C(F)(F)F)ns1 [compound 13, 5-(2-(Trifluoromethyl)benzyl)-1,3,4-oxathiazol-2-one] | – | 8.7 | – | –
O=c1oc(C#Cc2ccccc2)ns1 [compound 20, 5-(Phenylethynyl)-1,3,4-oxathiazol-2-one] | – | 4.2 | – | solubility at 18 h (physchem [4]): 24.9 µM (≈ 5.06 µg/mL); IC50 [5]: 1040 nM; remaining at 24 h, 50 µM (physchem [6]): 89.6%
O=c1oc(/C=C/c2c[nH]c3ccccc23)ns1 [compound 57, 57] | – | 5 | – | solubility at 18 h (physchem [7]): 4.1 µM (≈ 1 µg/mL)
C=Cc1nsc(=O)o1 [compound 21, 5-Vinyl-1,3,4-oxathiazol-2-one] | – | 9.1 | – | –
O=c1onc(/C=C/c2ccccc2)o1 [compound 25] | – | – | – | solubility at 18 h (physchem [4]): 12.3 µM (≈ 2.33 µg/mL)
O=c1oc(/C=C/c2ccc(Cl)cc2)ns1 [compound 39, (E)-5-(4-Chlorostyryl)-1,3,4-oxathiazol-2-one] | 98.2 | > 100 | 565 | –
Cc1cccc(/C=C/c2nsc(=O)o2)c1 [compound 41, (E)-5-(3-Methylstyryl)-1,3,4-oxathiazol-2-one] | 98.1 | 39 | 1600 | –
O=c1nc2c(/C=C/c3nsc(=O)o3)cccn2s1 [compound 56, (E)-5-(2-(2-Oxo-2 H-[1,2,4]thiadiazolo[2,3-a]pyridin-8-yl)vinyl)-1,3,4-oxathiazol-2-one] | – | – | – | solubility at 18 h (physchem [7]): 2.4 µM (≈ 0.67 µg/mL)
O=c1oc(/C=C/c2ccccc2OC(F)(F)F)ns1 [compound 47, (E)-5-(2-(Trifluoromethoxy)styryl)-1,3,4-oxathiazol-2-one] | 95.7 | > 100 | – | –
O=c1oc(-c2cnccn2)ns1 [compound 2] | – | – | – | solubility at 18 h (physchem [4]): 35.1 µM (≈ 6.36 µg/mL); IC50 [5]: 2300 nM; remaining at 24 h, 50 µM (physchem [6]): 3.6%

SMILES | remaining at 24 h, 50 µM (physchem [1]) [%] | IC50 [2] [µM] | IC50 [3] [nM] | also measured
COC(=O)c1ccc(/C=C/c2nsc(=O)o2)cc1 [compound 35, (E)-Methyl 4-(2-(2-oxo-1,3,4-oxathiazol-5-yl)vinyl)benzoate] | 97.3 | 27.5 | 415 | –
O=c1oc(/C=C/C(F)(F)F)ns1 [compound 22, (E)-5-(3,3,3-Trifluoroprop-1-en-1-yl)-1,3,4-oxathiazol-2-one] | – | > 100 | – | solubility at 18 h (physchem [4]): 44.1 µM (≈ 8.69 µg/mL); remaining at 24 h, 50 µM (physchem [6]): 79.9%
O=c1oc(CCc2ccccc2)ns1 [compound 15, 5-Phenethyl-1,3,4-oxathiazol-2-one] | – | 6.7 | – | –
Cc1ccccc1/C=C/c1nsc(=O)o1 [compound 45, (E)-5-(2-Methylstyryl)-1,3,4-oxathiazol-2-one] | 94 | > 100 | – | –
O=c1oc(/C=C/c2ccccc2)ns1 [compound 17, (E)-5-Styryl-1,3,4-oxathiazol-2-one] | – | > 100 | – | solubility at 18 h (physchem [4]): 19.1 µM (≈ 3.92 µg/mL); IC50 [5]: 420 nM; remaining at 24 h, 50 µM (physchem [6]): 38.7%
CCc1cccc(/C=C/c2nsc(=O)o2)c1 [compound 42, (E)-5-(3-Ethylstyryl)-1,3,4-oxathiazol-2-one] | 96.4 | 32.5 | 1450 | –
O=c1oc(-c2ccccc2)ns1 [compound 1, 5-Phenyl-1,3,4-oxathiazol-2-one] | – | 6.2 | – | –
COc1cccc(-c2nsc(=O)o2)c1 [compound 3] | – | – | – | solubility at 18 h (physchem [4]): 30.9 µM (≈ 6.47 µg/mL); IC50 [5]: 665 nM; remaining at 24 h, 50 µM (physchem [6]): 15.4%
CC(C)c1ccc(/C=C/c2nsc(=O)o2)cc1 [compound 29, (E)-5-(4-Isopropylstyryl)-1,3,4-oxathiazol-2-one] | 99.8 | 14.5 | 1700 | –
O=c1oc(/C=C/c2cccnc2)ns1 [compound 55, (E)-5-(2-(Pyridin-3-yl)vinyl)-1,3,4-oxathiazol-2-one] | – | – | – | solubility at 18 h (physchem [7]): 70.6 µM (≈ 14.6 µg/mL)
O=c1oc(CF)ns1 [compound 8, 5-(Fluoromethyl)-1,3,4-oxathiazol-2-one] | – | 1.4 | – | –
O=c1oc(-c2cnccn2)ns1 [compound 2, 5-(Pyrazin-2-yl)-1,3,4-oxathiazol-2-one] | – | 4.5 | – | –
COc1cccc(-c2nsc(=O)o2)c1 [compound 3, 5-(3-Methoxyphenyl)-1,3,4-oxathiazol-2-one] | – | 15 | – | –
COc1ncccc1/C=C/c1nsc(=O)o1 [compound 50, (E)-5-(2-(2-Methoxypyridin-3-yl)vinyl)-1,3,4-oxathiazol-2-one] | – | 29.5 | – | solubility at 18 h (physchem [7]): 2.1 µM (≈ 0.496 µg/mL); remaining at 24 h, 50 µM (physchem [8]): 97.7%
N#Cc1ccc(/C=C/c2nsc(=O)o2)cc1 [compound 37, (E)-4-(2-(2-Oxo-1,3,4-oxathiazol-5-yl)vinyl)benzonitrile] | 95.4 | 41.5 | 495 | –
O=c1oc(/C=C/c2cccc(OC(F)(F)F)c2)ns1 [compound 43, (E)-5-(3-(Trifluoromethoxy)styryl)-1,3,4-oxathiazol-2-one] | 96.2 | 39.5 | 1800 | –
CCc1ccccc1/C=C/c1nsc(=O)o1 [compound 46, (E)-5-(2-Ethylstyryl)-1,3,4-oxathiazol-2-one] | 98 | > 100 | – | –
O=c1oc(/C=C/c2ccc(C(F)(F)F)cc2)ns1 [compound 18, (E)-5-(4-(Trifluoromethyl)styryl)-1,3,4-oxathiazol-2-one] | – | > 100 | – | solubility at 18 h (physchem [4]): 0.1 µM (≈ 0.0273 µg/mL)
O=c1onc(-c2ccccc2)o1 [compound 24, 3-Phenyl-1,4,2-dioxazol-5-one] | – | > 100 | – | solubility at 18 h (physchem [4]): 7.6 µM (≈ 1.24 µg/mL); remaining at 24 h, 50 µM (physchem [6]): 8.5%
O=c1oc(/C=C/c2ccccn2)ns1 [compound 54, (E)-5-(2-(Pyridin-2-yl)vinyl)-1,3,4-oxathiazol-2-one] | – | – | – | solubility at 18 h (physchem [7]): 64.6 µM (≈ 13.3 µg/mL)
O=c1oc(Cc2cccc3ccccc23)ns1 [compound 12, 5-(Naphthalen-1-ylmethyl)-1,3,4-oxathiazol-2-one] | – | > 100 | – | –
O=c1oc(/C=C/c2cc(Cl)ccc2Cl)ns1 [compound 40, (E)-5-(2,5-Dichlorostyryl)-1,3,4-oxathiazol-2-one] | 98.5 | 50 | 785 | –
CO[C@H](c1ccccc1)c1nsc(=O)o1 [compound 16, (R)-5-(Methoxy(phenyl)methyl)-1,3,4-oxathiazol-2-one] | – | 5.8 | – | –
CCc1ccc(/C=C/c2nsc(=O)o2)cc1 [compound 31, (E)-5-(4-Ethylstyryl)-1,3,4-oxathiazol-2-one] | 98.2 | > 100 | 1080 | –
O=c1oc(Cc2ccccc2)ns1 [compound 9, 5-Benzyl-1,3,4-oxathiazol-2-one] | – | 1.9 | – | –
